Target: T1, GABA-A receptor; alpha-1/beta-3/gamma-2 (Homo sapiens, UniProt P14867+P18507+P28472)
T1 sequence (P14867 whole entry): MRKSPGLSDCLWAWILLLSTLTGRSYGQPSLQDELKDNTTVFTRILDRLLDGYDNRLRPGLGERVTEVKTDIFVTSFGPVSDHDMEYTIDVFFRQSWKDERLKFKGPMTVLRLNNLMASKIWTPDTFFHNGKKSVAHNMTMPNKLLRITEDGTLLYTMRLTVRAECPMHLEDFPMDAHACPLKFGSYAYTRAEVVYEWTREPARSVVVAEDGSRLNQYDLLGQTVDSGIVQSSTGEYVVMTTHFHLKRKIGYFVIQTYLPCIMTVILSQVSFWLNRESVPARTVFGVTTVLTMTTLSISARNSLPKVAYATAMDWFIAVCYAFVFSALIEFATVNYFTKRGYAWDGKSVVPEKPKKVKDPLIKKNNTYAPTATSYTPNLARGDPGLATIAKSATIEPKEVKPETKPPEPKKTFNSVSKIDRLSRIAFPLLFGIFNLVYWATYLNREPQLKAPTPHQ
T1 sequence (P18507 whole entry): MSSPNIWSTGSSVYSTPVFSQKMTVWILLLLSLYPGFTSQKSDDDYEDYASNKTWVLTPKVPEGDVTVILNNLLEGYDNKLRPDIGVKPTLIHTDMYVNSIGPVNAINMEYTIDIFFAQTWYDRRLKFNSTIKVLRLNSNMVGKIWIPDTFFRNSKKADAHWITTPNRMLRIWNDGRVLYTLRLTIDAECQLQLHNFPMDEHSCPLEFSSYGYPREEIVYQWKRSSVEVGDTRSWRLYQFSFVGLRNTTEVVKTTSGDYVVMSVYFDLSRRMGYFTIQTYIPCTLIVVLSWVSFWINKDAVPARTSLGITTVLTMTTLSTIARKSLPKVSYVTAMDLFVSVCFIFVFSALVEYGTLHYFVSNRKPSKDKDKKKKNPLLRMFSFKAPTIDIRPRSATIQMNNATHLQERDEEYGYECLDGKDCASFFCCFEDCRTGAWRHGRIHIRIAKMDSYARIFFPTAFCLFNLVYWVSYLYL
T1 sequence (P28472 whole entry): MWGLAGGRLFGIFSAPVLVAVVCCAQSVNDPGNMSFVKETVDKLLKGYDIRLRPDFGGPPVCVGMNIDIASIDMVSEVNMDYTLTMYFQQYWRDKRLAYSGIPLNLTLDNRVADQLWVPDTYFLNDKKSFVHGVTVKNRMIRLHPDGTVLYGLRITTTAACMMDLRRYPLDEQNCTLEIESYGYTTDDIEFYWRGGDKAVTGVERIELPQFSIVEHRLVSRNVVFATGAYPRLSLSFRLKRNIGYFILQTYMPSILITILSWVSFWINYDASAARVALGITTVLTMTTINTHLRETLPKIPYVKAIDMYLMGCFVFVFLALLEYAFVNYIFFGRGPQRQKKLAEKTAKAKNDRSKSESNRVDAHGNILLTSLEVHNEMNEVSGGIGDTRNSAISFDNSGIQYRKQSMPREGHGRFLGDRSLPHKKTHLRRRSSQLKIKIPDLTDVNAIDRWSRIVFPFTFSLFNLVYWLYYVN
Test: Binding affinity for human GABA-A receptor alpha-1-beta-3-gamma-2 subunits in L(tk-) cells

Row | SMILES | Ki
1 | Cc1ccc2c(OCc3ccccn3)nn3c(-c4ccccc4)nnc3c2c1 | > 1000 nM
2 | c1ccc(COc2nn3c(C4CCC4)nnc3c3ccccc23)nc1 | 56 nM
3 | COc1ccc(-c2nnc3c4ccccc4c(=O)n(Cc4ccccc4)n23)cc1 | > 1000 nM
4 | CN(Cc1ccccc1)c1nn2c(-c3ccccc3)nnc2c2ccccc12 | 500 nM
5 | CC(C)(C)c1nnc2c3ccccc3c(OCc3ccccn3)nn12 | > 1000 nM
6 | c1ccc(-c2nnc3c4ccccc4c(OCc4ccoc4)nn23)cc1 | 26 nM
7 | c1ccc(-c2nnc3c4ccccc4c(OCc4cccnn4)nn23)cc1 | 0.82 nM
8 | c1ccc(-c2nnc3c4ccccc4c(OCc4ccsc4)nn23)cc1 | 710 nM
9 | c1ccc(CCCOc2nn3c(-c4ccccc4)nnc3c3ccccc23)cc1 | 300 nM
10 | c1ccc(CNc2nn3c(-c4ccccc4)nnc3c3ccccc23)cc1 | > 1000 nM
11 | CCCc1nnc2c3ccccc3c(OCc3ccccn3)nn12 | 160 nM
12 | N#Cc1cccc(COc2nn3c(-c4ccccc4)nnc3c3ccccc23)c1 | 730 nM
13 | COc1cccc(COc2nn3c(-c4ccccc4)nnc3c3ccccc23)c1 | 800 nM

Target: T2, GABA-A receptor; alpha-5/beta-3/gamma-2 (Homo sapiens, UniProt P18507+P28472+P31644)
T2 sequence (P18507 whole entry): T1 sequence (P18507 whole entry)
T2 sequence (P28472 whole entry): T1 sequence (P28472 whole entry)
T2 sequence (P31644 whole entry): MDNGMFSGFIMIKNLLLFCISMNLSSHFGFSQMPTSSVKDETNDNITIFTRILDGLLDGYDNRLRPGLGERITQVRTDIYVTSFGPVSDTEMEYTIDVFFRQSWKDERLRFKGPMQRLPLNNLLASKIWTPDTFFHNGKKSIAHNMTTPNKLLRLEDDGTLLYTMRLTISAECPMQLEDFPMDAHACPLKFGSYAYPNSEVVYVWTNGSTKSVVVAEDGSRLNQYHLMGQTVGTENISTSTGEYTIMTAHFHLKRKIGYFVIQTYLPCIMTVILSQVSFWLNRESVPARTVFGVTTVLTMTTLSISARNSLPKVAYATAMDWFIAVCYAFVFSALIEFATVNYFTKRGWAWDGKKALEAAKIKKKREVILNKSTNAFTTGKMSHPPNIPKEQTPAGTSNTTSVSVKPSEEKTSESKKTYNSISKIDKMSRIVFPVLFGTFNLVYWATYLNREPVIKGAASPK
Test: Binding affinity for human GABA-A receptor alpha-5-beta-3-gamma-2 subunits in L(tk-) cells
Assay type: cell-based

Row | SMILES | Ki
14 | O=C1c2ccccc2C(=O)N1CCn1c(=O)c2ccccc2c(=O)n1Cc1ccccc1 | 4800 nM
15 | COCCN(CCOC)c1nn2c(-c3ccc(OC)cc3)nnc2c2ccccc12 | 80 nM
16 | Cc1ccc(-c2nnc3c4ccccc4c(OCc4ccccn4)nn23)cc1 | 4 nM
17 | Cc1ccc2c(OCc3ccccn3)nn3c(-c4ccccc4)nnc3c2c1 | > 1000 nM
18 | c1ccc(COc2nn3c(C4CCC4)nnc3c3ccccc23)nc1 | 5.1 nM
19 | COc1ccc(-c2nnc3c4ccccc4c(=O)n(Cc4ccccc4)n23)cc1 | > 1000 nM
20 | COc1ccc(-c2nnc3c4ccccc4c(OCc4ccccc4)nn23)cc1 | 72 nM
21 | Cc1ccc(-c2nc3ccc(C)cn3c2CC(=O)N(C)C)cc1 [ZOLPIDEM] | > 15000 nM
22 | CN(Cc1ccccc1)c1nn2c(-c3ccccc3)nnc2c2ccccc12 | 240 nM
23 | CC(C)(C)c1nnc2c3ccccc3c(OCc3ccccn3)nn12 | > 1000 nM
24 | c1ccc(-c2nnc3c4ccccc4c(OCc4ccoc4)nn23)cc1 | 13 nM
25 | c1ccc(-c2nnc3c4ccccc4c(OCc4cccnn4)nn23)cc1 | 0.15 nM
26 | c1ccc(-c2nnc3c4ccccc4c(OCc4ccsc4)nn23)cc1 | 250 nM
27 | c1ccc(CCCOc2nn3c(-c4ccccc4)nnc3c3ccccc23)cc1 | > 1000 nM
28 | c1ccc(CNc2nn3c(-c4ccccc4)nnc3c3ccccc23)cc1 | > 1000 nM
29 | CCCc1nnc2c3ccccc3c(OCc3ccccn3)nn12 | 19 nM
30 | N#Cc1cccc(COc2nn3c(-c4ccccc4)nnc3c3ccccc23)c1 | 130 nM
31 | COc1cccc(COc2nn3c(-c4ccccc4)nnc3c3ccccc23)c1 | 150 nM

Target: T3, GABA-A receptor; alpha-3/beta-3/gamma-2 (Homo sapiens, UniProt P18507+P28472+P34903)
T3 sequence (P18507 whole entry): T1 sequence (P18507 whole entry)
T3 sequence (P28472 whole entry): T1 sequence (P28472 whole entry)
T3 sequence (P34903 whole entry): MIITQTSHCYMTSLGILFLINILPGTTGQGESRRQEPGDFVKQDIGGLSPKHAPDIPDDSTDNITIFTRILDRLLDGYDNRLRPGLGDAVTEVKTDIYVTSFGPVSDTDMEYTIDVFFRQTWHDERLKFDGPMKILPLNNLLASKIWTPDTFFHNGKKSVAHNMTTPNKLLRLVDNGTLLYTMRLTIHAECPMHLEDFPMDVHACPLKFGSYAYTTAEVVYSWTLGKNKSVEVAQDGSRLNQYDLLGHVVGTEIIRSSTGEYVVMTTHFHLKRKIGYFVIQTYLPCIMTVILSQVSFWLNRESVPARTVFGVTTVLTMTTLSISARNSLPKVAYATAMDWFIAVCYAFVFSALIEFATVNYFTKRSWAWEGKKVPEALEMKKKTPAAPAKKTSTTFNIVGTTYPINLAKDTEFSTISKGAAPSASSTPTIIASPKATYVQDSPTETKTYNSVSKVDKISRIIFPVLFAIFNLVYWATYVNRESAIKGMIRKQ
Test: Binding affinity for human GABA-A receptor alpha-3-beta-3-gamma-2 subunits in L(tk-) cells
Assay type: cell-based

Row | SMILES | Ki
32 | O=C1c2ccccc2C(=O)N1CCn1c(=O)c2ccccc2c(=O)n1Cc1ccccc1 | 1400 nM
33 | COCCN(CCOC)c1nn2c(-c3ccc(OC)cc3)nnc2c2ccccc12 | 41 nM
34 | Cc1ccc(-c2nnc3c4ccccc4c(OCc4ccccn4)nn23)cc1 | 11 nM
35 | Cc1ccc2c(OCc3ccccn3)nn3c(-c4ccccc4)nnc3c2c1 | > 1000 nM
36 | c1ccc(COc2nn3c(C4CCC4)nnc3c3ccccc23)nc1 | 23 nM
37 | COc1ccc(-c2nnc3c4ccccc4c(=O)n(Cc4ccccc4)n23)cc1 | > 1000 nM
38 | COc1ccc(-c2nnc3c4ccccc4c(OCc4ccccc4)nn23)cc1 | 170 nM
39 | CN(Cc1ccccc1)c1nn2c(-c3ccccc3)nnc2c2ccccc12 | > 1000 nM
40 | CC(C)(C)c1nnc2c3ccccc3c(OCc3ccccn3)nn12 | > 1000 nM
41 | c1ccc(-c2nnc3c4ccccc4c(OCc4ccoc4)nn23)cc1 | 21 nM
42 | c1ccc(-c2nnc3c4ccccc4c(OCc4cccnn4)nn23)cc1 | 0.37 nM
43 | c1ccc(-c2nnc3c4ccccc4c(OCc4ccsc4)nn23)cc1 | 240 nM
44 | c1ccc(CCCOc2nn3c(-c4ccccc4)nnc3c3ccccc23)cc1 | 420 nM
45 | c1ccc(CNc2nn3c(-c4ccccc4)nnc3c3ccccc23)cc1 | > 1000 nM
46 | CCCc1nnc2c3ccccc3c(OCc3ccccn3)nn12 | 52 nM
47 | N#Cc1cccc(COc2nn3c(-c4ccccc4)nnc3c3ccccc23)c1 | 170 nM
48 | COc1cccc(COc2nn3c(-c4ccccc4)nnc3c3ccccc23)c1 | 66 nM

Target: T4, GABA-A receptor; alpha-2/beta-3/gamma-2 (Homo sapiens, UniProt P18507+P28472+P47869)
T4 sequence (P18507 whole entry): T1 sequence (P18507 whole entry)
T4 sequence (P28472 whole entry): T1 sequence (P28472 whole entry)
T4 sequence (P47869 whole entry): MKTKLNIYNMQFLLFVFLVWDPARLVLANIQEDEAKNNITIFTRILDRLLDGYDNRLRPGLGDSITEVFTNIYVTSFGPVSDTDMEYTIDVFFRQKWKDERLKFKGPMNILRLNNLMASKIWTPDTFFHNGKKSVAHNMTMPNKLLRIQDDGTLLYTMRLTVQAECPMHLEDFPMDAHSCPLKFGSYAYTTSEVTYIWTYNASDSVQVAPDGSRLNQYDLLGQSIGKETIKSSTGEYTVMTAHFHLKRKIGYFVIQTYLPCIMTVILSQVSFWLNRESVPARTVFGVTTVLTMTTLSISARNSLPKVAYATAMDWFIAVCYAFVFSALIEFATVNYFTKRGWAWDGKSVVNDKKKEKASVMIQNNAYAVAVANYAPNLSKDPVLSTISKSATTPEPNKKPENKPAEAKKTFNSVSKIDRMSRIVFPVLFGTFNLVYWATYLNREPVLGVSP
Test: Binding affinity for human GABA-A receptor alpha-2-beta-3-gamma-2 subunits in L(tk-) cells
Assay type: cell-based

Row | SMILES | Ki
49 | O=C1c2ccccc2C(=O)N1CCn1c(=O)c2ccccc2c(=O)n1Cc1ccccc1 | 1800 nM
50 | COCCN(CCOC)c1nn2c(-c3ccc(OC)cc3)nnc2c2ccccc12 | 41 nM
51 | Cc1ccc(-c2nnc3c4ccccc4c(OCc4ccccn4)nn23)cc1 | 16 nM
52 | Cc1ccc2c(OCc3ccccn3)nn3c(-c4ccccc4)nnc3c2c1 | > 1000 nM
53 | c1ccc(COc2nn3c(C4CCC4)nnc3c3ccccc23)nc1 | 24 nM
54 | COc1ccc(-c2nnc3c4ccccc4c(=O)n(Cc4ccccc4)n23)cc1 | > 1000 nM
55 | COc1ccc(-c2nnc3c4ccccc4c(OCc4ccccc4)nn23)cc1 | 850 nM
56 | CN(Cc1ccccc1)c1nn2c(-c3ccccc3)nnc2c2ccccc12 | > 1000 nM
57 | CC(C)(C)c1nnc2c3ccccc3c(OCc3ccccn3)nn12 | > 1000 nM
58 | c1ccc(-c2nnc3c4ccccc4c(OCc4ccoc4)nn23)cc1 | 38 nM
59 | c1ccc(-c2nnc3c4ccccc4c(OCc4ccsc4)nn23)cc1 | 510 nM
60 | c1ccc(CCCOc2nn3c(-c4ccccc4)nnc3c3ccccc23)cc1 | > 1000 nM
61 | c1ccc(CNc2nn3c(-c4ccccc4)nnc3c3ccccc23)cc1 | > 1000 nM
62 | CCCc1nnc2c3ccccc3c(OCc3ccccn3)nn12 | 120 nM
63 | N#Cc1cccc(COc2nn3c(-c4ccccc4)nnc3c3ccccc23)c1 | 400 nM
64 | COc1cccc(COc2nn3c(-c4ccccc4)nnc3c3ccccc23)c1 | 170 nM

Source: ChEMBL document CHEMBL1149126, “3-phenyl-6-(2-pyridyl)methyloxy-1,2,4-triazolo[3,4-a]phthalazines and analogues: high-affinity gamma-aminobutyric acid-A benzodiazepine receptor ligands with alpha 2, alpha 3, and alpha 5-subtype binding selectivity over alpha 1” (J Med Chem, 2004)
